This note sets out measurements from US20020132823A1, “Assay method” (priority 2001, published 2002).

One series deals with T1, Recombinant human Prak (Homo sapiens, UniProt Q8IW41).
T1 construct: His6; made in house; host or cells: E. coli
T1 sequence (Q8IW41 1-471 isoform Q8IW41-2): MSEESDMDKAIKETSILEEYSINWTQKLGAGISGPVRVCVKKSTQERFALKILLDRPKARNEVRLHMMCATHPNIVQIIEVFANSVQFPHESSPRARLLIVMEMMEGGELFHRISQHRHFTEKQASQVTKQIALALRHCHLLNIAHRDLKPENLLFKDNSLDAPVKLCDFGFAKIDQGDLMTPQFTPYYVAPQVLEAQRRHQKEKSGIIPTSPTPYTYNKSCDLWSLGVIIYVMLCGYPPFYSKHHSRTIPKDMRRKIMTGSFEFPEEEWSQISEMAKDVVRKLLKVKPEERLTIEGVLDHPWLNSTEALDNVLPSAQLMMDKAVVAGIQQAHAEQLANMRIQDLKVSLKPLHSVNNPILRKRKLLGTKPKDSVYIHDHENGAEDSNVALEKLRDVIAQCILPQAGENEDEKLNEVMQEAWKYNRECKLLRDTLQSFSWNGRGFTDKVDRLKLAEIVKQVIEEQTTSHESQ
Kind of series: In vitro kinase assay Prak (HSP27 phosphorylation, 33P-ATP). The settings on record: activated recombinant human Prak, His-HSP27 substrate, 1 h at room temperature. The class given is biochemical. Here is the method:
Recombinant human Prak was expressed in E. coli as His6-tagged protein substantially as described for Mnk1 by Tschopp et al. (Tschopp et al. (2000) Phoshorylation of eIF-4E on Ser 209 in response to mitogenic and inflammatory stimuli is faithfully detected by specific antibodies. Molecular Cell Biology Res. Comm. 3, 205-211). Phospho-p38a and His6-Hsp27 was prepared substantially as described (New et al. and Tschopp et al. ibid). All kinase reactions were performed with the following reaction buffer. Kinase buffer (5×): 125 mM Hepes (Stock at 1M; Gibco #15630-056), 125 mM β-glycerophosphate (Sigma #G-6251):125 mM MgCl2 (Merck #5833); 0.5 mM Sodium orthovanadate (Sigma #5-6508), 10 mM DTT (Boehringer Mannheim #708992), pH 7.4. The (5×) kinase buffer is freshly prepared from 25× stock solution. DTT is stored frozen at −20° C. in small aliquots and added immediately before use.
Prior to the assay, recombinant Prak is phosphorylated by incubation with phospho-p38. […]
The assay is stopped after one hour of incubation at room temperature by the addition of 5 μl EDTA 0.5M. […] After washing and drying the membrane, incorporated label is quantified by liquid scintillation counting.

Series [1] concerns TNFα release from human peripheral blood mononuclear cells. Kind of series: TNFα release from human PBMCs (LPS/γ-interferon stimulated, ELISA). Format: cell-based. The note with it: PBMC, LPS 5 μg/ml + γ-interferon 100 U/ml, 3 hours. The protocol:
(§1) 2. TNFα and IL-1 Release from Human PBMCs
(§2) Cell Separation and Culture
(§3) All cell culture and ELISA work was done on 96 well plates (Costar). Mononuclear cells were prepared from the blood of healthy volunteers using ficoll-hypaque density separation according to the method of Hansel et al (Hansel TT et al. (1991) An improved immunomagnetic procedure for the isolation of highly purified human blood eosinophils. J. Imm. Methods 145, 105-110) and used at a concentration of 100,000 cells/well in RPMI 1640, 5% FCS (Gibco). Serial dilution of the test compound were made in DMSO and diluted with culture medium. Final DMSO concentration in the culture medium was 0.1%. […]
For ELISA determination, supernatants were diluted 1:1 and added into a plate coated with the anti humanTNF monoclonal antibody (357-101-4, clone 92030603 from European Collection of Animal Cell Cultures, antibody produced and purified within Novartis Pharma, 1 μg/ml in PBS) After overnight incubation, the plates were washed (4×) and biotinylated anti humanTNF monoclonal antibody 2-179-E11 (clone 92030602 (European Collection of Animal Cell Cultures), produced and purified in Novartis Pharma) was added to a final concentration of 1 μg/ml (100 μl/well). […] Color formation was monitored in a Bio-Tec ELx 808 plate reader at 405 nm in the kinetic mode for 30 minutes. […]
(An ELISA detects its analyte on a solid surface through an enzyme-linked reagent.)

Series [2] relates to IL-1β release from human peripheral blood mononuclear cells. Nature of the series: IL-1β release from human PBMCs (LPS/γ-interferon stimulated, ELISA). The class given is cell-based. The settings on record: PBMC, LPS 5 μg/ml + γ-interferon 100 U/ml, 4.5 hours. The protocol: as §1, §2
as §3, with “0.1%. Compound were preincubated with the cells for 30 minutes at 37° C., 5% CO2. Then, the cells were stimulated with LPS (5 μg/ml, Sigma) and γ-interferon (100 U/ml, Boehringer Mannheim) and cultured for 3 hours (for TNFα-determination) or 4.5 hours (for Il-1 β and Il-6 determination).” for “0.1%.”
ELISA microtiter plates were coated with a murine anti-human IL-1^2 MAb (Human IL-1^2 Cytoset (Biosource International Inc., #CHC1214), 100 μl at 1 μg/ml) in PBS 0.02% NaN3 and incubated overnight at +4° C., The following day, microtiter plates were washed 4 times with PBS/0.05% Tween/0.02% NaN3 and blocked with 300 μl of PBS/2% bovine serum albumin (BSA)/0.02% NaN3 for 3 h. […] Plates were read in a microtiter reader (Bio-Rad) using filters of 405 and 490 nm.

The nature of series [3]: Cytotoxicity in THP-1 cells (MTT). The settings on record: human, THP-1 cells stimulated with LPS/IFNγ, LPS/IFN stimulated. Format: cell-based. Here is the method:
THP-1 cells are obtained from ATCC and stored in liquid nitrogen. Medium for growth of THP-1 cells: RPMI 1640(GIBCO)+10% fetal bovine serum (GIBCO)+L-glutamine (2 mM)+penicillin/streptomycin (100 U/ml) +β-mercaptoethanol (0.05 mM). Cell culture medium for THP-1 incubation: RPMI 1640(GIBCO)+5% fetal bovine serum (GIBCO)+L-glutamine (2 mM)+penicillin/streptomycin (100 U/ml)+β-mercaptoethanol (0.05 mM).
The solution for stimulation is prepared by mixing equal volumes of IFNγ (Boehringer Mannheim, 2000 U/ml) and LPS (Sigma, L8274, 100 μg/ml). The dye solution is prepared from 500 mg MTT (Sigma, M2128) in 100 ml phosphate buffered saline (PBS) and kept under sterile conditions at 4° C. Sodium dodecyl sulfate (SDS) solution (10%) is made from 50 g SDS (Bioprobe Systems) and 5 ml 1N HCl. The solution is made up to 500 ml with distilled water and kept at room temperature (precipitates in the fridge). All incubations are done at 37° C. in 5% CO2. […]
The absorbance at 540 nm is read with a microplate reader (Biotec 808 Elx). […]
Calculation of cytotoxicity: The absorbance corresponding to 100% cytotoxicity equals the absorbance of wells without cells (no MTT converted into the blue dye). The absorbance corresponding to no cytotoxicity is taken from wells without substance, but with control solvent. Percent cytotoxicity is calculated for each substance concentration.

In series [4] the test system is IL-6 production in human dermal fibroblasts. Kind of series: IL-6 production in human dermal fibroblasts (IL-1β stimulated, ELISA). The class given is cell-based. The note with it: Fibroblast, 1 μM compound, IL-1β 100 pg/ml, 16-17 h. Here is the method: 4. IL-6 Production in Human Dermal Fibroblasts
Human dermal foreskin fibroblasts were obtained from Clonetics (CC-2509) and grown in FBM (Clonetics, CC-3131 ) including bFGF (1 ng/ml, CC-4065), insulin (5 μg/ml, CC-4021), and 2% FCS (CC-4101).
For induction of IL-6, cells were seeded at a density of 10^4 cells per well in a 48 well tissue cluster. The following day, cells were starved for 6-7 h in FBM containing 2% FCS. Compounds were added at final concentrations of 10 and 1 μM 30 min prior to stimulation with recombinant human IL-1β (100 pg/ml).
Cell supernatant was taken 16-17 h after stimulation and the amount of released IL-6 determined in a sandwich ELISA.
ELISA microtiter plates were coated with a murine anti-human IL-6 MAb (314-14 (Novartis Pharma; batch EN23,961, 5.5 mg/ml); 100 μl at 3 μg/ml) in PBS 0.02% NaN3 and incubated overnight at +4° C., The following day, microtiter plates were washed 4 times with PBS/0.05% Tween/0.02% NaN3 and blocked with 300 μl of PBS/3% bovine serum albumin (BSA)/0.02% NaN3 for 3 h. […] Plates were read in a microtiter reader (Bio-Rad) using filters of 405 and 490 nm. IL-6 levels in culture supernatants were calculated in reference to the standard curve using the cubic curve fit. Percentage inhibitions and IC50 values were calculated

By IC50 is commonly meant the concentration at which inhibition is half-maximal. The term inhibition denotes the percentage by which the read-out fell short of the control. Low values mean a weak effect, high ones a strong effect.

For `O=S(=O)(c1ccc(Nc2nccc(N3CCCc4c(O)cccc43)n2)cc1)N1CCCCC1` [Compound A], the figures for the half-inhibitory concentration (IC50) (on Recombinant human Prak; in series [1]; in series [2]) were 1100 nM, 2200 nM and 1100 nM, respectively. The compound further came in with an IC50 at 24 h in series [3] above 30000 nM. Testing at 1 µM in series [4] gave an inhibition of 100%.
